In patent US20240174723A1, “STAPLED ANTIMICROBIAL PEPTIDES (STAMPS) AND USES THEREOF” (Lytica Therapeutics, Inc., priority 2021, published 2024):
In brackets after ≈: the same amount, converted by molar mass. Positions of bridges follow the written chain, without caps; N, C: chain ends. Non-standard residues stand in square brackets, D forms with d. Residues, ends and D or L forms follow the SMILES beside them. S5 = C=CCCC[C@](C)(N)C(=O)O; Dab = NCC[C@H](N)C(=O)O; PEG1 = NCCOCCC(=O)O

Tests used:
E. coli = type: cell-based, Escherichia coli
Method in brief: (§1)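 Broth microdilution adapted from CLSI in Mueller-Hinton broth or cation-adjusted MHB. Overnight 37 °C cultures were regrown 3-4 h, then added to serially diluted peptide at a final 5×10^5 CFU/ml. After 20-24 h at 37 °C, MIC was the lowest peptide concentration with no visible growth.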

P. aeruginosa = type: cell-based, Pseudomonas aeruginosa
Method in brief: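 Broth microdilution adapted from CLSI in MHB or cation-adjusted MHB; log-phase P. aeruginosa at 5×10^5 CFU/ml final with serially diluted stapled peptides. Incubated 20-24 h at 37 °C; MIC is the lowest concentration without visible growth.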

A. baumannii = type: cell-based, Acinetobacter baumannii
Method in brief: as §1

S. aureus = type: cell-based, Staphylococcus aureus
Method in brief: as §1

K. pneumoniae = type: cell-based, Klebsiella pneumoniae
Method in brief: as §1

in vitro [1] = type: cell-based; conditions: human, Inhibitory Concentration at 50% Cytotoxicity (IC50) Human Liver Cells (HepG2)
Method in brief: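 HepG2 cells in EMEM with 10% FBS, allowed 4 h to attach, then exposed to serial dilutions of StAMPs (from a 5 mg/mL water stock) or vehicle. After 48 h at 37 °C, viability read by CellTiter-Glo luminescence.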

in vitro [2] = type: cell-based; conditions: human
Method in brief: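 RPTEC or HepG2 cells plated overnight, given fresh media, then serial StAMP dilutions (from 5 mg/mL water stock) or vehicle at 37 °C. Cytotoxicity read as LDH release into media, absorbance 490 nm; renal toxicity after 90 min, liver toxicity after 48 h incubation.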

Row | Compound | Minimum Inhibitory Concentration (MIC) E. coli (E. coli) | Minimum Inhibitory Concentration (MIC) P. aeruginosa (P. aeruginosa) | Minimum Inhibitory Concentration (MIC) A. baumannii (A. baumannii) | Minimum Inhibitory Concentration (MIC) S. aureus (S. aureus) | Minimum Inhibitory Concentration (MIC) K. pneumoniae (K. pneumoniae) | IC50 at 90 min (in vitro [2]) | IC50 at 48 hours (in vitro [1])
1 | CC(C)[C@@H]1NC(=O)[C@@](C)(NC(=O)[C@H](C)NC(=O)[C@H](CCCCN)NC(=O)CNC(=O)[C@H](Cc2ccccc2)NC(=O)[C@H](CCCCN)NC(=O)[C@H](CCCCN)NC(=O)[C@H](CCCCN)NC(=O)[C@H](CCCCN)NC(=O)[C@H](CCCCN)NC(=O)[C@]2(C)CCCC=CCCC[C@](C)(NC(=O)CN)C(=O)NCC(=O)N[C@@H](CCCCN)C(=O)N[C@@H](Cc3ccccc3)C(=O)N2)CCCC=CCCC[C@@](C)(C(=O)N[C@@H](C)C(=O)N[C@@H](CCCCN)C(=O)N[C@@H](CCCCN)C(=O)NCCOCCC(N)=O)NC(=O)[C@H](CCC(=O)O)NC(=O)CNC1=O [compound 71] (H-G[S5]GKF[S5]KKKKKFGKA[S5]VGE[S5]AKK[PEG1]-NH2; staple 2-6, 16-20) | 2 µg/mL | 4 µg/mL | 2 µg/mL | >64 µg/mL | 4 µg/mL | 200 µg/mL (≈ 74.6 µM) | 247 µg/mL (≈ 92.2 µM)
2 | CC(C)[C@@H]1NC(=O)[C@H](C(C)C)NC(=O)[C@@](C)(NC(=O)[C@H](C)NC(=O)[C@H](CCCCN)NC(=O)CNC(=O)[C@H](Cc2ccccc2)NC(=O)[C@H](CCCCN)NC(=O)[C@H](CCCCN)NC(=O)[C@H](CCCCN)NC(=O)[C@H](CCCCN)NC(=O)[C@H](CCCCN)NC(=O)[C@]2(C)CCCC=CCCC[C@](C)(NC(=O)CN)C(=O)NCC(=O)N[C@@H](CCCCN)C(=O)N[C@@H](Cc3ccccc3)C(=O)N2)CCCC=CCCC[C@@](C)(C(=O)N[C@@H](C)C(=O)N[C@@H](CCCCN)C(=O)N[C@@H](CCCCN)C(=O)NCC(=O)NCC(=O)N[C@@H](CCC(=O)O)C(N)=O)NC(=O)[C@H](CCC(=O)O)NC1=O [compound 32] (H-G[S5]GKF[S5]KKKKKFGKA[S5]VVE[S5]AKKGGE-NH2; staple 2-6, 16-20) | 4 µg/mL | 4 µg/mL | 4 µg/mL | >64 µg/mL | 8 µg/mL | ~200 µg/mL (≈ 70.2 µM) | > 200 µg/mL
3 | CC(C)[C@@H]1NC(=O)[C@@](C)(NC(=O)[C@H](C)NC(=O)[C@H](CCCCN)NC(=O)[C@H](Cc2c[nH]c3ccccc23)NC(=O)[C@H](Cc2c[nH]c3ccccc23)NC(=O)[C@H](CCCCN)NC(=O)[C@H](CCCCN)NC(=O)[C@H](CCCCN)NC(=O)[C@H](CO)NC(=O)[C@H](Cc2c[nH]cn2)NC(=O)[C@]2(C)CCCC=CCCC[C@](C)(NC(=O)CN)C(=O)NCC(=O)N[C@@H](CCCCN)C(=O)N[C@@H](Cc3ccccc3)C(=O)N2)CCCC=CCCC[C@@](C)(C(=O)N[C@@H](C)C(=O)N[C@@H](CCCCN)C(=O)N[C@@H](CCCCN)C(N)=O)NC(=O)[C@H](CCC(=O)O)NC(=O)CNC1=O [compound 62] (H-G[S5]GKF[S5]HSKKKWWKA[S5]VGE[S5]AKK-NH2; staple 2-6, 16-20) | 16 µg/mL | 16 µg/mL | 4 µg/mL | >64 µg/mL | 8 µg/mL | 30 µg/mL (≈ 11.1 µM) | 35 µg/mL (≈ 13 µM)

Second part, led by results:

Row | Minimum Inhibitory Concentration (MIC) E. coli (E. coli) | Minimum Inhibitory Concentration (MIC) P. aeruginosa (P. aeruginosa) | Minimum Inhibitory Concentration (MIC) A. baumannii (A. baumannii) | Minimum Inhibitory Concentration (MIC) S. aureus (S. aureus) | Minimum Inhibitory Concentration (MIC) K. pneumoniae (K. pneumoniae) | IC50 at 90 min (in vitro [2]) | Compound | IC50 at 48 hours (in vitro [1])
4 | 6 µg/mL | 8 µg/mL | 4 µg/mL | >64 µg/mL | >64 µg/mL | > 200 µg/mL | CC(C)[C@@H]1NC(=O)[C@@](C)(NC(=O)[C@H](C)NC(=O)[C@H](CCCCN)NC(=O)CNC(=O)[C@H](Cc2ccccc2)NC(=O)[C@H](CCCCN)NC(=O)[C@H](CCCCN)NC(=O)[C@H](CCCCN)NC(=O)[C@H](CCC(N)=O)NC(=O)[C@H](Cc2c[nH]cn2)NC(=O)[C@]2(C)CCCC=CCCC[C@](C)(NC(=O)CN)C(=O)NCC(=O)N[C@@H](CCCCN)C(=O)N[C@@H](Cc3ccccc3)C(=O)N2)CCCC=CCCC[C@@](C)(C(=O)N[C@@H](C)C(=O)N[C@@H](CCCCN)C(=O)N[C@@H](CCCCN)C(N)=O)NC(=O)[C@H](CCC(=O)O)NC(=O)CNC1=O [compound 7] (H-G[S5]GKF[S5]HQKKKFGKA[S5]VGE[S5]AKK-NH2; staple 2-6, 16-20) | > 200 µg/mL
5 | 2 µg/mL | 8 µg/mL | 2 µg/mL | >64 µg/mL | 32 µg/mL | 294 µg/mL (≈ 116 µM) | CC(C)[C@@H]1NC(=O)[C@@](C)(NC(=O)[C@H](C)NC(=O)[C@H](CCCCN)NC(=O)CNC(=O)[C@H](Cc2ccccc2)NC(=O)[C@H](CCCCN)NC(=O)[C@H](CCCCN)NC(=O)[C@H](CCCCN)NC(=O)[C@H](CO)NC(=O)[C@H](Cc2c[nH]cn2)NC(=O)[C@]2(C)CCCC=CCCC[C@](C)(NC(=O)CN)C(=O)NCC(=O)N[C@@H](CCCCN)C(=O)N[C@@H](Cc3ccccc3)C(=O)N2)CCCC=CCCC[C@@](C)(C(=O)N[C@@H](C)C(=O)N[C@@H](CCCCN)C(=O)N[C@@H](CCCCN)C(N)=O)NC(=O)[C@H](CCC(=O)O)NC(=O)CNC1=O [compound 1] (H-G[S5]GKF[S5]HSKKKFGKA[S5]VGE[S5]AKK-NH2; staple 2-6, 16-20) | 391 µg/mL (≈ 154 µM)
6 | 4 µg/mL | 8 µg/mL | 4 µg/mL | >64 µg/mL | 32 µg/mL | 108 µg/mL (≈ 41.8 µM) | CC(C)[C@@H]1NC(=O)[C@@](C)(NC(=O)[C@H](C)NC(=O)[C@H](CCCCN)NC(=O)CNC(=O)[C@H](Cc2ccccc2)NC(=O)[C@H](CCCCN)NC(=O)[C@H](CCCCN)NC(=O)[C@H](CCCCN)NC(=O)[C@H](CO)NC(=O)[C@H](Cc2c[nH]c3ccccc23)NC(=O)[C@]2(C)CCCC=CCCC[C@](C)(NC(=O)CN)C(=O)NCC(=O)N[C@@H](CCCCN)C(=O)N[C@@H](Cc3ccccc3)C(=O)N2)CCCC=CCCC[C@@](C)(C(=O)N[C@@H](C)C(=O)N[C@@H](CCCCN)C(=O)N[C@@H](CCCCN)C(N)=O)NC(=O)[C@H](CCC(=O)O)NC(=O)CNC1=O [compound 60] (H-G[S5]GKF[S5]WSKKKFGKA[S5]VGE[S5]AKK-NH2; staple 2-6, 16-20) | 56 µg/mL (≈ 21.7 µM)
7 | 2 µg/mL | 2 µg/mL | 2 µg/mL | 64 µg/mL | 2 µg/mL | 70 µg/mL (≈ 26.8 µM) | CC(C)[C@@H]1NC(=O)[C@@](C)(NC(=O)[C@H](C)NC(=O)[C@H](CCCCN)NC(=O)CNC(=O)[C@H](Cc2ccccc2)NC(=O)[C@H](CCCCN)NC(=O)[C@H](CCCCN)NC(=O)[C@H](CCCCN)NC(=O)[C@H](CO)NC(=O)[C@H](CCCCN)NC(=O)[C@]2(C)CCCC=CCCC[C@](C)(NC(=O)CN)C(=O)NCC(=O)N[C@@H](CCCCN)C(=O)N[C@@H](Cc3ccccc3)C(=O)N2)CCCC=CCCC[C@@](C)(C(=O)N[C@@H](C)C(=O)N[C@@H](CCCCN)C(=O)N[C@@H](CCCCN)C(N)=O)NC(=O)[C@H](CCC(=O)O)NC(=O)[C@H](Cc2ccccc2)NC1=O [compound 20] (H-G[S5]GKF[S5]KSKKKFGKA[S5]VFE[S5]AKK-NH2; staple 2-6, 16-20) | 105 µg/mL (≈ 40.2 µM)
8 | 2 µg/mL | 4 µg/mL | 2 µg/mL | >64 µg/mL | 8 µg/mL | 115 µg/mL (≈ 45.3 µM) | CC(C)[C@@H]1NC(=O)[C@@](C)(NC(=O)[C@H](C)NC(=O)[C@H](CCN)NC(=O)CNC(=O)[C@H](Cc2ccccc2)NC(=O)[C@H](CCCCN)NC(=O)[C@H](CCCCN)NC(=O)[C@H](CCCCN)NC(=O)[C@H](CCCCN)NC(=O)[C@H](CCCCN)NC(=O)[C@]2(C)CCCC=CCCC[C@](C)(NC(=O)CN)C(=O)NCC(=O)N[C@@H](CCCCN)C(=O)N[C@@H](Cc3ccccc3)C(=O)N2)CCCC=CCCC[C@@](C)(C(=O)N[C@@H](C)C(=O)N[C@@H](CCCCN)C(=O)N[C@@H](CCCCN)C(N)=O)NC(=O)[C@H](CCC(=O)O)NC(=O)CNC1=O [compound 39] (H-G[S5]GKF[S5]KKKKKFG[Dab]A[S5]VGE[S5]AKK-NH2; staple 2-6, 16-20) | 140 µg/mL (≈ 55.2 µM)
